Values of other authors, collected in article PMC12181400, “Leveraging viral genome sequences and machine learning models for identification of potentially selective antiviral agents” (Communications Chemistry, 2025).
Structures can show the parent of a compound that is named as a salt. Where two headings read alike, the source gives them in different places.

Tests used:
Settings in all cases: cited from earlier work
[1] = system: cell viability (tox21-ap1-agonist-p1)
[2] = system: cell viability (tox21-ar-mda-kb2-luc-agonist-p3)
[3] = system: cell viability (tox21-ar-mda-kb2-luc-antagonist-p2)
[4] = system: cell viability (tox21-are-bla-p1)
[5] = system: cell viability (tox21-car-agonist-p1)
[6] = system: cell viability (tox21-car-antagonist-p1)
[7] = curve rank −9 to 9, 0 = inactive, ref NCATS Tox21 public data browser

Row | Compound | tox21-ap1-agonist-p1-viability (curve rank) [1] | tox21-ar-mda-kb2-luc-agonist-p3-viability (curve rank) [2] | tox21-ar-mda-kb2-luc-antagonist-p2-viability (curve rank) [3] | tox21-are-bla-p1-viability (curve rank) [4] | tox21-car-agonist-p1-viability (curve rank) [5] | tox21-car-antagonist-p1-viability (curve rank) [6] | tox21-ap1-agonist-p1-viability (curve rank) [1, 7] | tox21-ar-mda-kb2-luc-agonist-p3-viability (curve rank) [2, 7] | tox21-ar-mda-kb2-luc-antagonist-p2-viability (curve rank) [3, 7] | tox21-are-bla-p1-viability (curve rank) [4, 7] | tox21-car-agonist-p1-viability (curve rank) [5, 7] | tox21-car-antagonist-p1-viability (curve rank) [6, 7]
1 | CCOC(=O)c1ncn2c1CN(C)C(=O)c1cc(F)ccc1-2 [Flumazenil] | 0 | 0 | 0 | 0 | 0 | 0 |  |  |  |  |  | 
2 | NP(N)(=O)NC(=O)c1ccc(F)cc1 [Flurofamide] | 0 | 0 | 0 | 0 | 0 | 0 |  |  |  |  |  | 
3 | CCC(=O)O[C@]1(C(=O)SCF)[C@H](C)C[C@H]2[C@@H]3C[C@H](F)C4=CC(=O)C=C[C@]4(C)[C@@]3(F)[C@@H](O)C[C@@]21C [Fluticasone propionate] | 0 | 0 | 0 | 0 | 0.67 | 0 |  |  |  |  |  | 
4 | Nc1nc2ncc(CNc3ccc(C(=O)N[C@@H](CCC(=O)O)C(=O)O)cc3)nc2c(=O)[nH]1 [Folic acid] | 0 | 0 | 0 | 0 | 0 | 0 |  |  |  |  |  | 
5 | Cc1ccc(S(=O)(=O)NC(=O)NN2CC3CCCC3C2)cc1 (stereo not drawn) [Gliclazide] | 0 | 0 | 0 | 0 | 0 | 0 |  |  |  |  |  | 
6 | CCCCCC(N)=O [Hexanamide] |  |  |  |  |  |  | 0 | 0 | 0 | 0 | 0 | 0
7 | O=C(O)CCCCC(=O)O [Hexanedioic acid] |  |  |  |  |  |  | 0 | 0 | 0 | 0 | 0 | 0
8 | C[C@]12CCC(=O)C=C1CC[C@@H]1[C@@H]2[C@@H](O)C[C@@]2(C)[C@H]1CC[C@]2(O)C(=O)CO [Hydrocortisone] | 0 | 0 | 0 | 0 | 0 | 0 |  |  |  |  |  | 
9 | Nc1c2c(nc3ccccc13)CCCC2O.O=C(O)/C=C\C(=O)O (stereo not drawn) [Hydroxytacrine maleate] |  |  |  |  |  |  | 0 | 0 | 0 | 0 | 0 | 0
10 | CC1Cc2ccccc2N1NC(=O)c1ccc(Cl)c(S(N)(=O)=O)c1 (stereo not drawn) [Indapamide] | 0 | 0 | 0 | 0 | 0 | 0 |  |  |  |  |  | 
11 | C[C@H](O)C(=O)Nc1c(I)c(C(=O)NC(CO)CO)c(I)c(C(=O)NC(CO)CO)c1I [Iopamidol] | 0 | 0 | 0 | 0 | 0 | 0 |  |  |  |  |  | 
12 | CC(C)NNC(=O)c1ccncc1 [Iproniazid sulfate] | 0 | 0 | 0 | 0 | 0 | 0 |  |  |  |  |  | 
13 | O=C1c2ccccc2S(=O)(=O)N1CCCCN1CCN(c2ncccn2)CC1 [Ipsapirone] | 0 | 0 | 0 | 0 | 0 | 0 |  |  |  |  |  | 
14 | O=C(c1ccccc1)c1ccc2n1CCC2C(=O)O (stereo not drawn) [Ketorolac] | 0 | 0 | 0 | 0 | 0 | 0 |  |  |  |  |  | 
15 | Nc1nnc(-c2cccc(Cl)c2Cl)c(N)n1 [Lamotrigine] | 0 | 0 | 0 | 0 | -0.67 | 0 |  |  |  |  |  | 
16 | Cc1oncc1C(=O)Nc1ccc(C(F)(F)F)cc1 [Leflunomide] | 0 | 0 | 0 | 0 | 0 | 0 |  |  |  |  |  | 
17 | CC1(C)Oc2ccc(C#N)cc2[C@@H](N2CCCC2=O)[C@@H]1O [Levcromakalim] | 0 | 0 | 0 | 0 | 0 | 0 |  |  |  |  |  | 
18 | Cc1ccccc1OCC(O)CO (stereo not drawn) [Mephenesin] | 0 | 0 | 0 | 0 | 0 | 0 |  |  |  |  |  | 
19 | CCC1(c2cccc(O)c2)CCCCN(C)C1 (stereo not drawn) [Meptazinol hydrochloride] |  |  |  |  |  |  | 0 | 0 | 0 | 0 | 0 | 0
20 | Cc1cc(C)cc(OCC2CNC(=O)O2)c1 (stereo not drawn) [Metaxalone] | 0 | 0 | 0 | 0 | 0 | 0 |  |  |  |  |  | 
21 | C[C@](N)(Cc1ccc(O)c(O)c1)C(=O)O [Methyldopa] | 0 | 0 | 0 | 0 | 0 | 0 |  |  |  |  |  | 
22 | CC[C@@H](CO)NC(=O)[C@@H]1C=C2c3cccc4c3c(cn4C)C[C@H]2N(C)C1 [Methysergide] |  |  |  |  |  |  | 0 | 0 | 0 | 0 | 0 | 0
23 | Cc1cc2c(cc1S(N)(=O)=O)S(=O)(=O)CCC2 [Meticrane] |  |  |  |  |  |  | 0 | 0 | 0 | 0 | 0 | 0
24 | COCCc1ccc(OCC(O)CNC(C)C)cc1 (stereo not drawn) [Metoprolol tartrate] |  |  |  |  |  |  | 0 | 0 | 0 | 0 | 0 | 0
25 | CC(C)(C(=O)c1cccnc1)c1cccnc1 [Metyrapone] | 0 | 0 | 0 | 0 | 0 | 0 |  |  |  |  |  | 
26 | COc1ccc(OC)c(C(O)CNC(=O)CN)c1 (stereo not drawn) [Midodrine hydrochloride] | 0 | 0 | 0 | 0 | 0 | 0 |  |  |  |  |  | 
27 | Nc1cc(N2CCCCC2)nc(N)[n+]1[O-] [Minoxidil] | 0 | 0 | 0 | 0 | 0 | 0 |  |  |  |  |  | 
28 | NC(=O)C[S+]([O-])C(c1ccccc1)c1ccccc1 (stereo not drawn) [Modafinil] |  |  |  |  |  |  | 0 | 0 | 0 | 0 | 0 | 0
